{
  "source": "patent US12134769B2",
  "about": "“MicroRNA-198 as a tumor suppressor in ovarian cancer” (Baylor College of Medicine, priority 2011, dated 2024)",
  "key": {"VCP 3′UTR": {"test_system": "VCP 3′UTR", "experiment": "Dual-luciferase reporter assay, VCP 3′UTR", "format": "cell-based", "details": "following miR-198 overexpression; firefly/Renilla ratio, 24 h", "excerpt": "(§1) For MSLN, six constructs were generated: 400 or 600 bp segments containing the WT sequence or specific 3-nucleotide mutations in the seed region of each miR-198 binding site were synthesized by GenScript and subcloned into the pEZX-MT01 3′UTR construct from Genecopoeia at Xba1 and BamH1 restriction sites such that they were inserted after the luciferase gene (FIG. 10). The same process was used for the VCP reporter constructs containing the full-length VCP 3′UTR (FIG. 10).\n(§2) Dual luciferase assays were performed according to the manufacturer's instruction. Luciferase expression analysis was performed at 24 h using the Dual-luciferase kit (Promega) and Sirius Luminometer (Berthold Detection System). Results are presented as the ratio of firefly to Renilla luciferase activities, normalized to controls."}, "MSLN CDS": {"test_system": "MSLN CDS", "experiment": "Dual-luciferase reporter assay, MSLN CDS constructs", "format": "cell-based, human", "details": "in the presence of miR-198", "excerpt": "as §1, §2"}, "MIA-MSLN cells [1]": {"test_system": "MIA-MSLN cells", "experiment": "Apoptosis assay (TUNEL, caspase 3 western) after TNF-α", "format": "cell-based, human", "experimental": "Apoptosis induction was determined using western blotting for Caspase 3 cleavage and confirmed by labeling DNA breaks using a terminal deoxynucleotidyltransferase dUTP nick end labeling (TUNEL) assay with the APO-DIRECT Kit (BD Biosciences) following 96 h of treatment (24 h serum starvation followed by 72 h of treatment with 20 ng/ml of TNF-α). Briefly, cells were plated in either 10% FBS media or serum-starved for 96 h, at which time 1×10^6 cells were harvested using trypsin-EDTA. After centrifugation, the pellets were washed twice with PBS, then resuspended in 1% paraformaldehyde in PBS and incubated on ice for 45 minutes. After several washes, the cell pellet again was resuspended in PBS/ethanol, incubated on ice for 30 minutes, and stored at −20° C. Cell samples were then pelleted, washed, and resuspended in 50 μL of DNA labeling solution containing a reaction buffer, terminal deoxynucleotidyl transferase enzyme, FITC-labeled deoxyuridine triphosphate nucleotides, and distilled water. After a 60-minute incubation at 37° C., cells were again washed, pelleted, and resuspended in 500 μl of propidium iodine/RNase staining buffer. Samples were then analyzed by flow cytometry (fluorescence-activated cell sorting) using a FACSCalibur (Becton Dickinson, Franklin Lakes, NJ). Data was further analyzed using the software FLOWJOW ver. 6.1.1 (Tree Star Inc.)."}, "AsPC1 cells [2]": {"test_system": "AsPC1 cells", "experiment": "Cell proliferation assay (MTT)", "format": "cell-based, human", "details": "AsPC1-miR-198 cells", "experimental": "(§3) Cells were seeded in 96-well plates (2×10^3 cells per well) and serum starved for 24 h prior to differential FBS additions. 3-(4,5-Dimethylthiazol-2-yl)-2,5-diphenyltetrazolium bromide (MTT) was used to measure cell proliferation as previously described (Bharadwaj et al., 2011b).\n(§4) Cell growth was assessed using MTT at 2, 3, 4, 5 and 6 days after releasing from starvation (not all data shown). Briefly, twenty microliters of MTT reagent mixed with 100 μL of growth medium was added to each well and incubated at 37° C. for 2 h. Cells were then lysed overnight using 100 μl of lysis buffer consisting of 20% SDS in 1:1 dimethyl formamide; H2O solution. Absorbance was recorded at 520 nm with an EL-800 universal microplate reader (Bio-Tek Instruments). Relative proliferation was calculated by dividing the reading by a Day 0 reading taken prior to serum starvation."}, "MIA-MSLN cells [3]": {"test_system": "MIA-MSLN cells", "experiment": "Cell proliferation assay (MTT)", "format": "cell-based, human", "details": "MIA-MSLN-miR-198 cells, after 5 days", "experimental": "as §3, §4"}, "AsPC1 cells [4]": {"test_system": "AsPC1 cells", "experiment": "Stable miR-198 overexpression, expression of network factors", "format": "cell-based, human", "experimental": "(§5) Western blots were performed as previously described (Li et al., 2008). Membranes were probed with: anti-MSLN monoclonal antibody (1:1000) (Abcam); PBX-1 polyclonal antibody (1:1000) and Caspase 3 antibody (1:1000) (Cell Signaling); OCT-2 polyclonal antibody (1:400), and VCP polyclonal antibody (1:200) (Santa Cruz Biotechnology); or anti-β-actin, Tubulin, LaminA or GAPDH antibodies (1:10,000) (Sigma Aldrich). Secondary incubation was performed with horseradish peroxidase-linked secondary antibody (1:2,000) (anti-mouse, anti-goat or anti-rabbit) (Cell Signaling).\n(§6) MSLN-overexpressing stable cells (or empty vector controls) were selected in MIA PaCa-2 cells or HPDE cells (MIA-MSLN, HPDE-MSLN) or vector (MIA-V, HPDE-V) using retrovirus vectors expressing puromycin resistance (Origene) with 0.5 μg/mL of puromycin added into the medium as previously described (Zhang et al.). Stable cells overexpressing miR-198 or vector control were generated in AsPC-1 (AsPC-1-miR-198, AsPC-1-miR-Ctrl), MIA-MSLN (MIA-MSLN-miR-198, MIA-MSLN-miR-Ctrl), MIA-V (MIA-V-miR-198, MIA-V-miR-Ctrl), and HPDE cells (HPDE-miR-198, HPDE-miR-Ctrl) using the Lenti-miR miRNA Precursor Clone Collection (SBI). The miRZip Lentivector collection from SBI was used to stably knock down miR-198 in MIA-PaCa2 (MIA-V-Zip-198, MIA-V-Zip-Ctrl) and HPDE (HPDE-Zip-198, HPDE-Zip-Ctrl) cells.\n(§7) Differential expression of 95 miRNAs chosen for their potential roles in cancer, cell development, and apoptosis was analyzed by RT-PCR using the QuantiMir System from SBI System Biosciences in both MIA-V and MIA-MSLN cells. The array plate also included the U6 transcript as a normalization signal. cDNAs from different cell lines and tissue samples were mixed with SYBR® Green Mastermix (Bio-Rad Laboratories) plus the universal reverse primer. Specific primers (1 μl) were added to each well of the qPCR plate. Expression levels of each mature miRNA were evaluated using comparative threshold cycle (Ct) method as normalized to that of U6 (2—ΔCt). The expression level of miR-198 was measured in all subsequent experiments using the same method. Real-time RT PCR was performed as previously described for MSLN, ZEB1, PBX-1, and VCP (Li et al., 2008)."}, "MIA-MSLN cells [5]": {"test_system": "MIA-MSLN cells", "experiment": "Stable miR-198 overexpression, expression of network factors", "format": "cell-based, human", "details": "miR-198 overexpression in MIA-MSLN cells", "experimental": "as §5, §6, §7"}},
  "data": [
    {"substance": "miR-198: microRNA-198, SEQ ID NO: 1 gguccagaggggagauagg; used as transfected precursors (Ambion) or Lenti-miR stable overexpression (GGUCCAGAGGGGAGAUAGG; listed as RNA, chemistry not given here; listed as Homo sapiens)", "values": [
      {"measurement": "decrease in VCP 3′UTR luciferase activity", "setting": "VCP 3′UTR", "value": "~70", "unit": "%"},
      {"measurement": "decrease in firefly luciferase expression, MSLN CDS site 2 WT construct", "setting": "MSLN CDS", "value": "almost completely"},
      {"measurement": "decrease in firefly luciferase expression, MSLN CDS site 3 WT construct", "setting": "MSLN CDS", "value": "~70", "unit": "%"},
      {"measurement": "decrease in firefly luciferase expression, MSLN CDS site 1 construct", "setting": "MSLN CDS; not statistically significant", "value": "slight reduction"},
      {"measurement": "increase in number of cells undergoing apoptosis over controls", "setting": "MIA-MSLN cells [1]; MIA-MSLN-miR-198 cells, TUNEL after TNF-α treatment", "value": "> 60", "unit": "%"},
      {"measurement": "caspase 3 cleavage", "setting": "MIA-MSLN cells [1]; overexpression of miR-198 in MIA-MSLN cells, western blot", "value": "results in caspase 3 cleavage"},
      {"measurement": "proliferation rates vs AsPC1-miR-Ctrl cells", "setting": "AsPC1 cells [2]", "value": "significantly lower proliferation rates"},
      {"measurement": "lower proliferation rates than MIA-MSLN and MIA-MSLN-miR-Ctrl cells", "setting": "MIA-MSLN cells [3]", "value": "approximately 3 fold"},
      {"measurement": "VCP mRNA levels downregulated", "setting": "AsPC1 cells [4]; ASPC1 cells following miR-198 overexpression, FIG. 10J", "value": "~5", "unit": "fold"},
      {"measurement": "VCP expression downregulated", "setting": "AsPC1 cells [4]; AsPC1 cells following miR-198 overexpression, FIG. 3E", "value": "~50", "unit": "fold"},
      {"measurement": "PBX-1 mRNA and protein expression", "setting": "AsPC1 cells [4]; miR-198 overexpression in AsPC1 cells", "value": "almost undetectable"},
      {"measurement": "MSLN expression at the protein level", "setting": "MIA-MSLN cells [5]", "value": "almost complete reduction of MSLN expression"},
      {"measurement": "MSLN mRNA expression levels", "setting": "MIA-MSLN cells [5]", "value": "partial decrease"},
      {"measurement": "PBX-1 mRNA and protein expression", "setting": "MIA-MSLN cells [5]", "value": "almost undetectable"},
      {"measurement": "VCP mRNA levels", "setting": "MIA-MSLN cells [5]; FIG. 10I", "value": "reduces VCP down to MIA-V cell levels"}
    ]}
  ]
}
